Laboratory results as given in article PMC9468151, “Identification of a binding site on soluble RANKL that can be targeted to inhibit soluble RANK-RANKL interactions and treat osteoporosis” (Nature Communications, 2022).
Where “and” joins values, the source holds several entries; their conditions need not be identical. Identical values can stand only once.

What was measured:
OVX rats = assay: Osteoporosis biomarkers determination in rat serum (ELISA); format: in vivo; conditions: OVX rats + S3-15, individual animals
Procedure: Change of rat osteoporosis biomarkers after treating with S3-15 were determined by enzyme-linked immunosorbent assay (ELISA). […] serum biomarkers including CTX-I (C-terminal telopeptide of type I collagen), OC(Osteocalcin), PINP (Procollagen I N-Terminal propeptide), and RANKL(Receptor activator of nuclear factor-κB ligand). Rat blood was collected from aortaventralis after anesthesia, and centrifuged in 14000 × g at 4 °C to get the serum samples. The protein contents of those biomarkers in serum samples were detected according to manufacturer’s instruction (CTX-I and OC, Systems IDS, UK; RANKL, R&D Systems, USA; PINP, USCN Life Science, Inc., China.).

[1] = Pharmacokinetic studies in rat; format: in vivo; parameters: plasma concentration-time (fig. S2c): unit not given here
Procedure: 28-week-old and 280 g∼370 g weight male SD (Sprague Dawley) rats were used for pharmacokinetic (PK) studies. Rats were weighed and divided into groups of 3 rats per group. Compounds S3, S3-05 and S3-15 were dissolved in deionized water and made the concentration to 1 mg/mL. Then rats were oral gavage administrated at the doses of 10 mg/kg for each compound. Blood samples were collected in tubes with heparin sodium at 5 min, 10 min, 20 min, 30 min, 40 min, 60 min, 2 h, 3 h, 4 h, 5.5 h, 7 h, 9 h, 12 h, 16 h, 24 h, 32 h, 40 h, 48 h, time points, with three […] per time point for each compound. Blood samples were centrifuged 2100 × g for 10 min at 4 °C, then the plasma was transferred to a clean microfuge tube. Plasma samples were stored at −80 °C. Additionally, ten rats were used as a control and not treated with compound. Plasma from control mice was used to calibrate LC-MS and correct for matrix effects. Drug concentration in plasma was quantified by LC-MS-based methods. Pharmacokinetic parameters were estimated using Phoenix WinNonlin (version 6.3) (Certara USA, Princeton, New Jersey) from mean plasma concentration-time profiles.

C3H10T1/2 = C3H10T1/2 proliferation and osteoblastic mineralization; format: cell-based, mouse; conditions: C3H10T1/2 or human primary osteoblasts, osteogenic differentiation medium
Procedure: Supplementary Fig.5. In Vitro Activity Evaluation and Signal Pathway Study of compound S3-15. a Western blot of PI3K and AKT phosphorylation in RAW264.7 cells treating with or without S315 and sRANKL at different point-in-time. b EC50 curve and representative OC microphotographs of mature osteoclasts apoptosis assay with S3-15. n=3 biological replicates for each concentration. EC50 values were calculated by GraphPad Prism 8 software. c EC50 curve and representative OC microphotographs of mature osteoclasts apoptosis assay with S3, S3-03 and S3-05. n=3 biological replicates for each concentration. EC50 values were calculated by GraphPad Prism […]
pits in dose-dependent manner (mouse BMMs). e Precursor osteoblasts C3H10T12 proliferation-promoting of S3, S3-05 and S3-15. f Osteoblastic mineralization after treatment with S3, S3-05 and S3-15. C3H10T12 cells were cultured in osteoblast induction differentiation medium with or without treatment for 14 days and determinate of calcium deposition in differentiated osteoblasts by Alizarin red staining. Error bars represent ± s.d. n=3. Statistical difference was determined by unpaired two-tailed Student’s t test. Significant difference p value is < 0.05. Scale […]
(1 picture or pasted object on this page, not shown here)

sRANKL = molecular target: T1, sRANKL (Rattus norvegicus, UniProt Q9ESE2, D175N); assay: Surface plasmon resonance (SPR) assay; format: binding; conditions: immobilized sRANKL, 25 °C
T1 construct: (1) sRANKL (rat 159-318 aa); His6-sumo (N, cleaved yes); made in house; host or cells: Escherichia coli BL21 (DE3)
T1 sequence (Q9ESE2 159-318 D175N): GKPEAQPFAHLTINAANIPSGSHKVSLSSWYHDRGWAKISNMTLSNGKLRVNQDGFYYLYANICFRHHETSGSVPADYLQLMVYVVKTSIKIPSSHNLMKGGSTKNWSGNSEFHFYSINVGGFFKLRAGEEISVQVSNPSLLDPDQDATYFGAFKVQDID
Procedure: A ProteOn XPR36TM SPR instrument (BioRad Hercules, CA) was used for carrying out SPR assays. sRANKL protein in PBS buffer, pH 7.4, was diluted to 20 nM in 10 mM sodium acetate buffer, pH 5.5 and immobilized in parallelflow channels of a the EDAC/Sulfo-NHS activated surface of a GLH biosensor chip (Bio-Rad) with an amine coupling kit (Bio-Rad). The surface was blocked with 1 M ethanolamine. The final immobilization level for sRANKL was approximately 14,000 RU. A blank immobilization channel in the same GLH biosensor chip was also activated with EDAC/Sulfo-NHS and blocked with 1 M ethanolamine to use as a reference.
Biosensor binding experiments were conducted in filtered and degassed running buffer (PBS containing 0.005% Tween-20, pH 7.4) at 25 °C. Compounds was dissolved in 100% DMSO in appropriate different series concentrations of stock solutions. Before detecting, compounds were diluted in six or five concentrations with running buffer and ensured that the content of DMSO contained in each detected concentration was consistent. Compounds in different concentrations were injected simultaneously at a flow rate at […] for 180 s and 120 s for the association phase, followed by 180 s for the disassociation. Following the compound injection, the chip surface was regenerated with 40 s pulses of 0.85% H3PO4 and running buffer.
ProtedOn Manager 2.0. was used for data analysis. Each set of sensorgrams was globally analyzed using the 1:1 Langmuir binding model to obtain the kinetic rate constants (Kon and Koff). Global kinetic rate constants (ka and kd) were derived for each reaction, and the equilibrium dissociation constant, KD, was calculated using the equation KD = kd/ka.

[2] = Sprague-Dawley, rat, male SD rats, oral 10 mg/kg, plasma

CC(=O)/C(=N\Nc1ccccc1C(=O)O)C(=O)Nc1ccccn1 [S3-15]
CTX-I, serum (OVX rats): 19.469 pg/mL and 18.8316 pg/mL and 14.1264 pg/mL and 18.682 pg/mL and 15.0327 pg/mL and 20.1095 pg/mL and 19.8831 pg/mL and 22.3952 pg/mL and 19.2437 pg/mL | Glu-OCN, serum (OVX rats): 17.0885 pg/mL and 18.9711 pg/mL and 13.9189 pg/mL and 19.8634 pg/mL and 15.7343 pg/mL and 15.8903 pg/mL and 20.547 pg/mL and 20.6523 pg/mL and 22.4466 pg/mL | OCN, serum (OVX rats): 88.7207 pg/mL and 63.1562 pg/mL and 56.8431 pg/mL and 170.125 pg/mL and 130.12 pg/mL and 70.5071 pg/mL and 180.184 pg/mL and 178.468 pg/mL and 148.784 pg/mL | PINP, serum (OVX rats): 11904.5 pg/mL and 9058.6 pg/mL and 6938.35 pg/mL and 7805.25 pg/mL and 15755.4 pg/mL and 15266.7 pg/mL and 4261.9 pg/mL and 14338.4 pg/mL and 6837.57 pg/mL | RANKL, serum (OVX rats): 197.546 pg/mL and 226.636 pg/mL and 184.818 pg/mL and 228.454 pg/mL and 215.727 pg/mL and 223 pg/mL and 210.273 pg/mL | Cmax [1, 2]: 9520 ± 920 ng/mL | half-life [1, 2]: 15.5 h | AUC ([1]; male SD rats, oral 10 mg/kg, plasma): 113.59± 17.41 hr*ug/m | oral availability ([1]; rat PK, in words): significant oral availability | plasma concentration-time (fig. S2c) ([1]; rat, time 0.083 h): 8.91 and 3.381 and 6.675 | plasma concentration-time (fig. S2c) ([1]; rat, time 0.167 h): 27.134 and 17.7488 and 10.2458 | plasma concentration-time (fig. S2c) ([1]; rat, time 0.333 h): 13.8156 and 22.2223 and 11.4529 | plasma concentration-time (fig. S2c) ([1]; rat, time 0.5 h): 17.5658 and 15.3508 and 13.9547 | plasma concentration-time (fig. S2c) ([1]; rat, time 0.667 h): 19.2235 and 12.2338 and 15.5001 | plasma concentration-time (fig. S2c) ([1]; rat, time 1 h): 10.8474 and 12.0395 and 10.786 | plasma concentration-time (fig. S2c) ([1]; rat, time 2 h): 16.2026 and 12.172 and 14.9878 | plasma concentration-time (fig. S2c) ([1]; rat, time 3 h): 10.9318 and 10.4453 and 9.091 | plasma concentration-time (fig. S2c) ([1]; rat, time 4 h): 11.3125 and 10.0653 and 13.8947 | plasma concentration-time (fig. S2c) ([1]; rat, time 5.5 h): 8.587 and 8.51 and 12.2576 | plasma concentration-time (fig. S2c) ([1]; rat, time 7 h): 16.4452 and 12.0395 and 11.7835 | plasma concentration-time (fig. S2c) ([1]; rat, time 9 h): 19.4794 and 12.2576 and 12.0395 | plasma concentration-time (fig. S2c) ([1]; rat, time 12 h): 5.907 and 4.021 and 6.547 | plasma concentration-time (fig. S2c) ([1]; rat, time 16 h): 1.447 and 2.372 and 1.915 | plasma concentration-time (fig. S2c) ([1]; rat, time 24 h): 0.5718 (2×) and 0.5604 | plasma concentration-time (fig. S2c) ([1]; rat, time 28 h): 0.2204 (2×) and 0.3334 | plasma concentration-time (fig. S2c) ([1]; rat, time 36 h): 0.2818 (2×) and 0.3414 | plasma concentration-time (fig. S2c) ([1]; rat, time 48 h): 0.1406 and 0.08379 and 0.1171 | cell proliferation and mineralization (C3H10T1/2): increase cell proliferation and mineralization | Kd (sRANKL): 33.7 µM
